Article PMC12388617, “Development and Biochemical Characterization of Quorum Quenching Enzyme from Deep-Sea Bacillus velezensis DH82” (Microorganisms, 2025)

Legend:
[1] = biological target: T1, YtnPDH82 (Bacillus velezensis, UniProt A7Z7T2); assay: UPLC-QTOF MS of residual AHL (m/z […]), Lineweaver-Burk; assay type: biochemical; conditions: pH 6.5, 28 °C, 45 min; substrate 200-350 µM (far below the printed Km)
T1 construct: gene RBAM_027000; full length, pET28a EcoRI/XhoI, His6 at N- and C-terminus, E. coli BL21, Ni-NTA; primer-encoded start METLNIGNF
T1 sequence (A7Z7T2 entry or part of it): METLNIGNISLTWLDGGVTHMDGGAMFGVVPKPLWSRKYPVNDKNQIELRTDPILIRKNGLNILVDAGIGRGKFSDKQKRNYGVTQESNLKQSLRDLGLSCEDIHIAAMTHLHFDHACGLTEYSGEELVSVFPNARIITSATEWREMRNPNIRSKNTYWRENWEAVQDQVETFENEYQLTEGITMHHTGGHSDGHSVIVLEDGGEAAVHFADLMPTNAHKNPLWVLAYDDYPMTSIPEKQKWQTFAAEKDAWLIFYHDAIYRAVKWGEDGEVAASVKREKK

[2] = system: T2, AiiADH82; assay: as above; assay type: biochemical, Bacillus velezensis; conditions: pH 6.5, 28 °C, 45 min; substrate 200-350 µM (far below the printed Km)
T2 construct: gene aiiA; full length, pET28a NdeI/XhoI, His6 at N- and C-terminus, E. coli BL21, Ni-NTA; primer-encoded start MTVKKLYF

SMILES: CCCC(=O)CC(=O)N[C@H]1CCOC1=O [3-oxo-C6-HSL]
- Km [1]: 15.3 mM
- Km [2]: 7.8 mM
